Laboratory results: patent publication US8461107B2 (Merck Sharp & Dohme Corp., priority 2008, dated 2013)

Molecular target: T1, HCV genotype 1b (BK) NS3 modified with a R155K mutation (Hepatitis C virus genotype 1b, UniProt P26663, R1181K)
T1 construct: HCV genotype 1b (BK) NS3 modified with a R155K mutation
Assay: HCV NS3 protease time-resolved fluorescence (TRF) assay, NS3 protease 1b R155K Ki activity
Type: biochemical
Conditions: HCV genotype 1b (BK) NS3 with R155K mutation; TRF peptide substrate 100 nM; Ki derived from IC50
Outline: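 Pre-incubation of NS3/NS4A protease (genotype 1b BK, R155K) with inhibitor for 30 min, then 1 h at room temperature with 100 nM TRF peptide substrate in pH 7.5 HEPES buffer with 10 mM DTT. Reaction quenched with pH 5.5 MES; time-resolved fluorescence read (ex 340/em 615 nm). Ki derived from four-parameter IC50 fit via IC50=Ki(1+[S]/KM).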

CC[C@@H]1C[C@]1(NC(=O)[C@@H]1C[C@@H]2CN1C(=O)[C@H](C1CCCC1)NC(=O)O[C@@H]1CCC[C@H]1CC/C=C/Cn1c(nc3cc(Cl)ccc3c1=O)O2)C(=O)NS(=O)(=O)C1CC1 [(3aR,7S,10S,12R,22E,25aS)-16-chloro-7-cyclopentyl-N-((1R,2R)-1-{[(cyclopropylsulfonyl)amino]carbonyl}-2-ethylcyclopropyl)-5,8,19-trioxo-1,2,3,3a,5,6,7,8,11,12,21,24,25,25a-tetradecahydro-10H,19H-9,12-methanocyclopenta[18,19][1,10,3,6,12]dioxatriazacyclononadecino[11,12-b]quinazoline-10-carboxamide]
Ki: 0.1 to 0.5 nM

C=C[C@@H]1C[C@]1(NC(=O)[C@@H]1C[C@@H]2CN1C(=O)[C@H](C1CCCC1)NC(=O)O[C@@H]1CCC[C@H]1CC/C=C/Cn1c(nc3cc(Cl)ccc3c1=O)O2)C(=O)NS(=O)(=O)C1CC1 [(3aR,7S,10S,12R,22E,25aS)-16-chloro-7-cyclopentyl-N-((1R,2S)-1-{[(cyclopropylsulfonyl)amino]carbonyl}-2-vinylcyclopropyl)-5,8,19-trioxo-1,2,3,3a,5,6,7,8,11,12,21,24,25,25a-tetradecahydro-10H,19H-9,12-methanocyclopenta[18,19][1,10,3,6,12]dioxatriazacyclononadecino[11,12-b]quinazoline-10-carboxamide]
Ki: < 0.1 nM

CC[C@@H]1C[C@]1(NC(=O)[C@@H]1C[C@@H]2CN1C(=O)[C@H](C1CCCC1)NC(=O)O[C@@H]1CCC[C@H]1CC/C=C/Cn1c(nc3cc(C#N)ccc3c1=O)O2)C(=O)NS(=O)(=O)C1CC1 [(3aR,7S,10S,12R,22E,25aS)-16-cyano-7-cyclopentyl-N-((1R,2R)-1-{[(cyclopropylsulfonyl)amino]carbonyl}-2-ethylcyclopropyl)-5,8,19-trioxo-1,2,3,3a,5,6,7,8,11,12,21,24,25,25a-tetradecahydro-10H,19H-9,12-methanocyclopenta[18,19][1,10,3,6,12]dioxatriazacyclononadecino[11,12-b]quinazoline-10-carboxamide]
Ki: 0.1 to 0.5 nM

C=C[C@@H]1C[C@]1(NC(=O)[C@@H]1C[C@@H]2CN1C(=O)[C@H](C1CCCC1)NC(=O)O[C@@H]1CCC[C@H]1CCC/C=C/Cn1c(cc3ccccc3c1=O)O2)C(=O)NS(=O)(=O)C1CC1 [(3aR,7S,10S,12R,22E,26aR)-7-cyclopentyl-N-((1R,2S)-1-{[(cyclopropylsulfonyl)amino]carbonyl}-2-vinylcyclopropyl)-5,8,19-trioxo-2,3,3a,5,6,7,8,11,12,21,24,25,26,26a-tetradecahydro-1H,10H,19H-9,12-methanocyclopenta[19,20][1,10,3,6,12]dioxatriazacycloicosino[12,11-b]isoquinoline-10-carboxamide]
Ki: 0.1 to 0.5 nM

C=C[C@@H]1C[C@]1(NC(=O)[C@@H]1C[C@@H]2CN1C(=O)[C@H](C1CCCC1)NC(=O)O[C@@H]1CCC[C@H]1C/C=C/CCn1c(cc3cc(OC)ccc3c1=O)O2)C(=O)NS(=O)(=O)C1CC1 [(3aR,7S,10S,12R,23E,25aS)-7-cyclopentyl-N-((1R,2S)-1-{[(cyclopropylsulfonyl)amino]carbonyl}-2-vinylcyclopropyl)-16-methoxy-5,8,19-trioxo-1,2,3,3a,5,6,7,8,11,12,21,22,25,25a-tetradecahydro-10H,19H-9,12-methanocyclopenta[18,19][1,10,3,6,12]dioxatriazacyclononadecino[12,11-b]isoquinoline-10-carboxamide]
Ki: < 0.1 nM

C=C[C@@H]1C[C@]1(NC(=O)[C@@H]1C[C@@H]2CN1C(=O)[C@H](C1CCCC1)NC(=O)O[C@@H]1CCC[C@H]1C/C=C/CCn1c(cc3ccc(F)cc3c1=O)O2)C(=O)NS(=O)(=O)C1CC1 [(3aR,7S,10S,12R,23E,25aS)-7-cyclopentyl-N-((1R,2S)-1-{[(cyclopropylsulfonyl)amino]carbonyl}-2-vinylcyclopropyl)-17-fluoro-5,8,19-trioxo-1,2,3,3a,5,6,7,8,11,12,21,22,25,25a-tetradecahydro-10H,19H-9,12-methanocyclopenta[18,19][1,10,3,6,12]dioxatriazacyclononadecino[12,11-b]isoquinoline-10-carboxamide]
Ki: 0.1 to 0.5 nM

CC[C@@H]1C[C@]1(NC(=O)[C@@H]1C[C@@H]2CN1C(=O)[C@H](C(C)(C)C)NC(=O)O[C@@H]1CCC[C@H]1C/C=C/CCn1c(cc3cc(Cl)ccc3c1=O)O2)C(=O)NS(=O)(=O)C1CC1 [(3aR,7S,10S,12R,23E,25aS)-7-tert-butyl-16-chloro-N-((1R,2R)-1-{[(cyclopropylsulfonyl)amino]carbonyl}-2-ethylcyclopropyl)-5,8,19-trioxo-1,2,3,3a,5,6,7,8,11,12,21,22,25,25a-tetradecahydro-10H,19H-9,12-methanocyclopenta[18,19][1,10,3,6,12]dioxatriazacyclononadecino[12,11-b]isoquinoline-10-carboxamide]
Ki: 0.1 to 0.5 nM

C=C[C@@H]1C[C@]1(NC(=O)[C@@H]1C[C@@H]2CN1C(=O)[C@H](C(C)(C)C)NC(=O)O[C@@H]1CCC[C@H]1C/C=C/CCn1c(cc3cc(Cl)ccc3c1=O)O2)C(=O)NS(=O)(=O)C1CC1 [(3aR,7S,10S,12R,23E,25aS)-7-tert-butyl-16-chloro-N-((1R,2S)-1-{[(cyclopropylsulfonyl)amino]carbonyl}-2-vinylcyclopropyl)-5,8,19-trioxo-1,2,3,3a,5,6,7,8,11,12,21,22,25,25a-tetradecahydro-10H,19H-9,12-methanocyclopenta[18,19][1,10,3,6,12]dioxatriazacyclononadecino[12,11-b]isoquinoline-10-carboxamide]
Ki: < 0.1 nM

C=C[C@@H]1C[C@]1(NC(=O)[C@@H]1C[C@@H]2CN1C(=O)[C@H](C(C)(C)C)NC(=O)O[C@@H]1CCC[C@H]1C/C=C/CCn1c(cc3ccccc3c1=O)O2)C(=O)NS(=O)(=O)C1CC1 [(3aR,7S,10S,12R,23E,25aS)-7-tert-butyl-N-((1R,2S)-1-{[(cyclopropylsulfonyl)amino]carbonyl}-2-vinylcyclopropyl)-5,8,19-trioxo-1,2,3,3a,5,6,7,8,11,12,21,22,25,25a-tetradecahydro-10H,19H-9,12-methanocyclopenta[18,19][1,10,3,6,12]dioxatriazacyclononadecino[12,11-b]isoquinoline-10-carboxamide]
Ki: < 0.1 nM

C=C[C@@H]1C[C@]1(NC(=O)[C@@H]1C[C@@H]2CN1C(=O)[C@H](C(C)(C)C)NC(=O)O[C@@H]1CCC[C@H]1C/C=C/CCn1c(cc3cc(OC)ccc3c1=O)O2)C(=O)NS(=O)(=O)C1CC1 [(3aR,7S,10S,12R,23E,25aS)-7-tert-butyl-N-((1R,2S)-1-{[(cyclopropylsulfonyl)amino]carbonyl}-2-vinylcyclopropyl)-16-methoxy-5,8,19-trioxo-1,2,3,3a,5,6,7,8,11,12,21,22,25,25a-tetradecahydro-10H,19H-9,12-methanocyclopenta[18,19][1,10,3,6,12]dioxatriazacyclononadecino[12,11-b]isoquinoline-10-carboxamide]
Ki: 0.1 to 0.5 nM

CC[C@@H]1C[C@]1(NC(=O)[C@@H]1C[C@@H]2CN1C(=O)[C@H](C1CCCCC1)NC(=O)O[C@@H]1CCC[C@H]1C/C=C/CCn1c(cc3cc(Cl)ccc3c1=O)O2)C(=O)NS(=O)(=O)C1CC1 [(3aR,7S,10S,12R,23E,25aS)-16-chloro-7-cyclohexyl-N-((1R,2R)-1-{[(cyclopropylsulfonyl)amino]carbonyl}-2-ethylcyclopropyl)-5,8,19-trioxo-1,2,3,3a,5,6,7,8,11,12,21,22,25,25a-tetradecahydro-10H,19H-9,12-methanocyclopenta[18,19][1,10,3,6,12]dioxatriazacyclononadecino[12,11-b]isoquinoline-10-carboxamide]
Ki: 0.1 to 0.5 nM

C=C[C@@H]1C[C@]1(NC(=O)[C@@H]1C[C@@H]2CN1C(=O)[C@H](C1CCCCC1)NC(=O)O[C@@H]1CCC[C@H]1C/C=C/CCn1c(cc3cc(Cl)ccc3c1=O)O2)C(=O)NS(=O)(=O)C1CC1 [(3aR,7S,10S,12R,23E,25aS)-16-chloro-7-cyclohexyl-N-((1R,2S)-1-{[(cyclopropylsulfonyl)amino]carbonyl}-2-vinylcyclopropyl)-5,8,19-trioxo-1,2,3,3a,5,6,7,8,11,12,21,22,25,25a-tetradecahydro-10H,19H-9,12-methanocyclopenta[18,19][1,10,3,6,12]dioxatriazacyclononadecino[12,11-b]isoquinoline-10-carboxamide]
Ki: < 0.1 nM

C=C[C@@H]1C[C@]1(NC(=O)[C@@H]1C[C@@H]2CN1C(=O)[C@H](C1CCCC1)NC(=O)O[C@@H]1CCC[C@H]1C/C=C/CCn1c(cc3cc(Cl)ccc3c1=O)O2)C(=O)NS(=O)(=O)C1CC1 [(3aR,7S,10S,12R,23E,25aS)-16-chloro-7-cyclopentyl-N-((1R,2S)-1-{[(cyclopropylsulfonyl)amino]carbonyl}-2-vinylcyclopropyl)-5,8,19-trioxo-1,2,3,3a,5,6,7,8,11,12,21,22,25,25a-tetradecahydro-10H,19H-9,12-methanocyclopenta[18,19][1,10,3,6,12]dioxatriazacyclononadecino[12,11-b]isoquinoline-10-carboxamide]
Ki: < 0.1 nM

CC[C@@H]1C[C@]1(NC(=O)[C@@H]1C[C@@H]2CN1C(=O)[C@H](C1CCCC1)NC(=O)O[C@@H]1CCC[C@H]1CCCCCn1c(nc3ccccc3c1=O)O2)C(=O)NS(=O)(=O)C1CC1 [(3aR,7S,10S,12R,25aR)-7-cyclopentyl-N-((1R,2R)-1-{[(cyclopropylsulfonyl)amino]carbonyl}-2-ethylcyclopropyl)-5,8,19-trioxo-1,2,3,3a,5,6,7,8,11,12,21,22,23,24,25,25a-hexadecahydro-10H,19H-9,12-methanocyclopenta[18,19][1,10,3,6,12]dioxatriazacyclononadecino[11,12-b]quinazoline-10-carboxamide]
Ki: 0.1 to 0.5 nM
